{
  "source": "patent US20230218754A1",
  "about": "“PHARMACEUTICAL COMPOSITIONS WITH ANTI-RANKL ANTIBODIES, CALCIUM AND VITAMIN D” (priority 2016, published 2023)",
  "key": {"[1]": {"conditions": "background statement; cited from earlier work"}, "[2]": {"test": "chair-rising test (standing up test) in osteoporosis patients", "assay_type": "in vivo, human", "conditions": "60 mg denosumab (Prolia) + 500 mg calcium + 1000 IE vitamin D3", "description": "The so-called “chair-rising test” (standing up test) was carried out in 3 patients.\nThe chair-rising test (standing up test) allows a determination to made concerning the strength and falling risk of the test person. The test person is asked to stand up and sit back down five times as quickly as possible with his/her arms folded over his/her chest and without using them from a chair of ordinary height (approximately 46 cm seat height). If the patient is not capable of doing this, the number of successful completions are counted rather than the seconds. If the patient takes longer than 10-11 seconds, it must be assumed that he/she is at increased risk of falling.\nThe improvement is given in the right column in %."}, "[3]": {"test": "serum calcium level in patients under denosumab plus calcium and vitamin D3", "assay_type": "in vivo, human", "description": "The following data from an oncological patient (prostate cancer) in Table 5 show the serum levels of calcium and vitamin D3 in administration of 120 mg of denosumab (anti-RANKL antibody, Xgeva) every 4 weeks and the oral administration of 500 mg of calcium daily and 1000 IU of vitamin D3 daily.\nIn Table 5, the patient received 120 mg of denosumab every 4 weeks and 500 mg of calcium and 1000 IU of vitamin D3:\nThe following data from osteoporosis patients in Table 6 show the serum values of calcium and vitamin D3 in administration of 60 mg of anti-RANKL antibody/denosumab (Prolia) every 6 months and the oral administration of 500 mg of calcium daily and 1000 IU of vitamin D3 daily.\nIn Table 6, the osteoporosis patients received 60 mg of denosumab every 6 months, 500 mg of calcium daily, and 1000 IU of vitamin D3, also daily: […]"}, "[4]": {"test": "25(OH) vitamin D3 serum concentration under vitamin D maintenance dose in patients with vitamin D deficiency", "assay_type": "in vivo, human", "from_the_text": "Vitamin D deficiency is a common diagnosis in osteology practice. […] The maintenance dose was 1000 IU of vitamin D daily."}, "[5]": {"test": "25(OH) vitamin D3 serum concentration under vitamin D maintenance dose in patients with vitamin D deficiency", "assay_type": "in vivo, human", "conditions": "maintenance dose of 400 IU of vitamin D daily"}},
  "note": "Where “and” joins values, the source holds several entries; their conditions need not be identical. Equal entries are not always repeated.",
  "data": [
    {"compound": "C=C1/C(=C\\C=C2/CCC[C@]3(C)[C@@H]([C@H](C)CCCC(C)(C)O)CC[C@@H]23)C[C@@H](O)C[C@@H]1O", "note": "[calcitriol, 1α,25-dihydroxycholecalciferol]", "values": [
      {"measurement": "time to maximum serum concentration after intake", "setting": "[1]", "result": "three to six"}
    ]},
    {"compound": "denosumab: anti-RANKL antibody approved as a medicinal preparation; marketed by Amgen as Prolia (60 mg) and Xgeva (120 mg)", "values": [
      {"measurement": "Chair Rising time repeated 6 months later", "setting": "[2]; osteoporosis patients, 6 months after beginning therapy", "result": "8 s and 10 s"},
      {"measurement": "reduction of the risk of falling", "setting": "[2]; three osteoporosis patients, 6 months", "result": "11-29%"},
      {"measurement": "Calcium (serum)", "setting": "[3]; oncological patient (prostate cancer), 120 mg denosumab (Xgeva) every 4 weeks + 500 mg calcium and 1000 IU vitamin D3 daily, after 13 weeks", "result": 2.11, "unit": "mmol/L"},
      {"measurement": "Calcium (serum)", "setting": "[3]; oncological patient (prostate cancer), 120 mg denosumab (Xgeva) every 4 weeks + 500 mg calcium and 1000 IU vitamin D3 daily, after 26 weeks", "result": 2.12, "unit": "mmol/L"},
      {"measurement": "Calcium (serum)", "setting": "[3]; osteoporosis patients, 60 mg denosumab (Prolia) every 6 months + 500 mg calcium and 1000 IU vitamin D3 daily, after 13 weeks", "result": "2.34 mmol/L and 2.32 mmol/L and 2.3 mmol/L and 2.37 mmol/L"},
      {"measurement": "Calcium (serum)", "setting": "[3]; osteoporosis patients, 60 mg denosumab (Prolia) every 6 months + 500 mg calcium and 1000 IU vitamin D3 daily, after 26 weeks", "result": "2.32 mmol/L and 2.45 mmol/L"}
    ]},
    {"compound": "vitamin D", "values": [
      {"measurement": "25(OH) vitamin D3 serum concentration at maintenance dose of 1000 IU of vitamin D daily", "setting": "[4]; individual female patients with initial vitamin D deficiency, 1000 IU vitamin D daily", "result": "29.2 ng/mL and 30.4 ng/mL and 28.8 ng/mL and 23.7 ng/mL and 23.2 ng/mL and 30.5 ng/mL and 25.5 ng/mL and 23.4 ng/mL"},
      {"measurement": "maintaining the vitamin D level in the normal range", "setting": "[4]; maintenance dose of 1000 IU of vitamin D daily", "result": "suitable"},
      {"measurement": "maintaining the vitamin D concentration at the standard level", "setting": "[5]", "result": "not sufficient"}
    ]}
  ]
}
